# Measurements from PubChem BioAssay AID378.
# Target: L-aminoadipate-semialdehyde dehydrogenase-phosphopantetheinyl transferase (Homo sapiens) (UniProt Q9NRN7)
# Test: PubChem AID 378
# Settings: purified protein DSF, SYPRO orange Tm shift, at 10 µM, protein 2 µM, pH 5.5, hits give high values
# [1] = buffer 10 mM NaH2PO4, NaCl 150 mM, MgCl2 2000 µM
# [2] = buffer 10 mM NaHPO4, with 150 mM NaCl, 2 mM MgCl2
# Chain of L-aminoadipate-semialdehyde dehydrogenase-phosphopantetheinyl transferase (Homo sapiens) (Q9NRN7 whole entry, looked up): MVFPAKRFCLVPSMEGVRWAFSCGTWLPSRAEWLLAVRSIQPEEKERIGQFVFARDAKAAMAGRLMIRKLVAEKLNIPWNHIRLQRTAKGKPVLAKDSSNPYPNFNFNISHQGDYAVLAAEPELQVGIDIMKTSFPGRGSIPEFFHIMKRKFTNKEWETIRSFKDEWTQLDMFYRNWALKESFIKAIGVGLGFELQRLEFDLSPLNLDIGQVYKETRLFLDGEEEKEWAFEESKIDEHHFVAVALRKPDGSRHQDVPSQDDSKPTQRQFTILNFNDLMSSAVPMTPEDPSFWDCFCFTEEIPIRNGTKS
Tm shift [1] [Celsius],SMILES,Tm shift [2] [Celsius]
3.1,CC(O)CC(=O)SCCNC(=O)CCNC(=O)C(O)C(C)(C)COP(=O)(O)OP(=O)(O)OCC1OC(n2cnc3c(N)ncnc32)C(O)C1OP(=O)(O)O (centres undefined),
,O=P(O)(O)C(O)(Cn1ccnc1)P(=O)(O)O,5.2
,O=[P+](O)C(O)(Cc1cccnc1)P(=O)(O)O (centres undefined),4.4
2.9,CC(C)(COP(=O)(O)OP(=O)(O)OCC1OC(n2cnc3c(N)ncnc32)C(O)C1OP(=O)(O)O)C(O)C(=O)NCCC(=O)NCCS (centres undefined),
